The source of these data is PubChem BioAssay (NCI).

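Method: 48-hour compound exposure of cells in 96-well plates, five concentrations, linear interpolation of endpoints. At the TGI there is no net growth.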

Test systems include SK-MEL-2 melanoma; MCF7 breast; ACHN renal; 786-0 renal; PC-3 prostate; HCT-116 colon; SK-OV-3 ovarian; U251 CNS; OVCAR-8 ovarian; UACC-62 melanoma; MALME-3M melanoma; KM12 colon; RXF 393 renal; SF-539 CNS; MDA-MB-231 breast; NCI-H23 lung; HCC-2998 colon; K-562 leukemia; M14 melanoma; HS 578T breast.
Holding throughout (test): inhibition of tumour cell growth, NCI panel, 48 h

With `O=c1c2ccccc2nc(-c2cc3c(cc2Cl)Sc2nccn2S3(=O)=O)n1-c1ccccc1`, the TGI with SK-MEL-2 melanoma was 43.5 µM; with MCF7 breast, 27.5 µM; in the test on ACHN renal, greater than 100 µM; with 786-0 renal, 94.6 µM; in the test with PC-3 prostate it was 30.8 µM; in the test with HCT-116 colon, 29.8 µM. Besides, the TGI was greater than 100 µM in the test on SK-OV-3 ovarian; 30.5 µM in the test with U251 CNS; 44 µM in the test with OVCAR-8 ovarian; 71.7 µM in the test with UACC-62 melanoma; greater than 100 µM with MALME-3M melanoma; 24.7 µM in the test on KM12 colon. For the same compound, the TGI with RXF 393 renal is 36 µM; in the test on SF-539 CNS, 40.5 µM; in the test with MDA-MB-231 breast it was 38.2 µM; in the test with NCI-H23 lung, greater than 100 µM; in the test on HCC-2998 colon it was 31 µM; in the test on K-562 leukemia it was greater than 100 µM. Moreover, the TGI with M14 melanoma was greater than 100 µM; in the test with HS 578T breast, 42.7 µM.
For the compound `O=NN1C(c2ccccc2)CC(=NO)CC1c1ccccc1` (stereo not given), the TGI with SK-MEL-2 melanoma, in the test on MCF7 breast, in the test with ACHN renal, with 786-0 renal, in the test on PC-3 prostate and in the test on HCT-116 colon was greater than 100 µM throughout. For the same compound, the TGI in the test with SK-OV-3 ovarian, with U251 CNS, in the test on OVCAR-8 ovarian, in the test on UACC-62 melanoma, in the test with MALME-3M melanoma and with KM12 colon was greater than 100 µM throughout. The TGI in the test with RXF 393 renal, in the test with SF-539 CNS, with MDA-MB-231 breast, in the test on NCI-H23 lung, in the test on HCC-2998 colon and with K-562 leukemia was greater than 100 µM each time. Also, the TGI in the test with M14 melanoma and in the test on HS 578T breast was greater than 100 µM each time.
For the compound `CC(=O)OCCCC(NC(=O)OC(C)(C)C)C(=O)NC(CCCOC(C)=O)C(=O)NC(Cc1ccc([N+](=O)[O-])cc1)C(=O)NCC(=O)OCc1ccccc1` (stereo not given), the TGI stood at 29.1 µM with SK-MEL-2 melanoma; 32.2 µM with MCF7 breast; 31.5 µM in the test with ACHN renal; 31.9 µM in the test on 786-0 renal; 30.9 µM with PC-3 prostate; 32.4 µM with HCT-116 colon. Further, the TGI is 57.6 µM in the test on SK-OV-3 ovarian; 32.8 µM in the test on U251 CNS; 31 µM in the test with OVCAR-8 ovarian; 29 µM in the test with UACC-62 melanoma; 34.4 µM in the test on MALME-3M melanoma; 29 µM in the test with KM12 colon. The TGI in the test with RXF 393 renal came out at 31.1 µM; in the test on SF-539 CNS it was 28.9 µM; with MDA-MB-231 breast, 27.3 µM; in the test on NCI-H23 lung, 27.3 µM; with HCC-2998 colon, 33.4 µM; with K-562 leukemia, 96 µM. Moreover, the TGI in the test with M14 melanoma was 25.6 µM; in the test on HS 578T breast, 32.8 µM.
Consider `Cc1cc2c(cc1Cl)SC(NNC(=O)c1ccco1)=NS2(=O)=O`, for which the TGI in the test with SK-MEL-2 melanoma, in the test with MCF7 breast, in the test with ACHN renal, in the test with 786-0 renal, in the test with PC-3 prostate and in the test with HCT-116 colon was greater than 10 µM each time. For the same compound, the TGI in the test on SK-OV-3 ovarian, in the test on U251 CNS, with OVCAR-8 ovarian, with UACC-62 melanoma, with MALME-3M melanoma and in the test with KM12 colon was greater than 10 µM in each case. The TGI in the test with RXF 393 renal, with SF-539 CNS, in the test on MDA-MB-231 breast, in the test on NCI-H23 lung, in the test on HCC-2998 colon and in the test with K-562 leukemia was greater than 10 µM each time. In addition, the TGI in the test with M14 melanoma and with HS 578T breast was greater than 10 µM throughout.
Turning to `CCc1cccc(C(C)(C)C)c1NC(=S)N/C=C(/C#N)C(N)=O`, the TGI with SK-MEL-2 melanoma, in the test on MCF7 breast, in the test on ACHN renal, in the test on 786-0 renal, with PC-3 prostate and in the test with HCT-116 colon was greater than 100 µM in each case. Moreover, the TGI in the test on SK-OV-3 ovarian, in the test with U251 CNS, in the test on OVCAR-8 ovarian, in the test with UACC-62 melanoma, with MALME-3M melanoma and in the test with KM12 colon was greater than 100 µM throughout. Further, the TGI in the test with RXF 393 renal, in the test with SF-539 CNS, with MDA-MB-231 breast, with NCI-H23 lung, with HCC-2998 colon and with K-562 leukemia was greater than 100 µM in each case. The TGI in the test on M14 melanoma and with HS 578T breast was greater than 100 µM throughout.
Take `c1ccc(-c2nnc(-c3ccccn3)c3c2C[C@@H]2C[C@@H]4Cc5c(-c6ccccn6)nnc(-c6ccccn6)c5[C@@H]4[C@H]32)nc1`: the TGI in the test on SK-MEL-2 melanoma, with MCF7 breast, in the test with ACHN renal, in the test with 786-0 renal, in the test on PC-3 prostate and with HCT-116 colon was greater than 100 µM in each case. For the same compound, the TGI with SK-OV-3 ovarian was greater than 100 µM; in the test with U251 CNS, 89.1 µM; with OVCAR-8 ovarian, greater than 100 µM; in the test on UACC-62 melanoma, greater than 100 µM; with MALME-3M melanoma, greater than 100 µM; in the test with KM12 colon it was greater than 100 µM. Besides, the TGI in the test with RXF 393 renal, in the test on SF-539 CNS, in the test on MDA-MB-231 breast, with NCI-H23 lung, in the test with HCC-2998 colon and in the test with K-562 leukemia was greater than 100 µM throughout. The TGI with M14 melanoma was 43.6 µM; in the test with HS 578T breast, greater than 100 µM.
Turning to `C/C(=C(/C)c1ccc(O)cc1)c1ccc(O)cc1`, the TGI with SK-MEL-2 melanoma, with MCF7 breast, with ACHN renal, with 786-0 renal, in the test on PC-3 prostate and in the test on HCT-116 colon was greater than 100 µM throughout. Also, the TGI in the test with SK-OV-3 ovarian is greater than 100 µM; in the test on U251 CNS, greater than 100 µM; with OVCAR-8 ovarian, greater than 100 µM; in the test with UACC-62 melanoma, 83.3 µM; with MALME-3M melanoma, greater than 100 µM; with KM12 colon it was greater than 100 µM. The TGI with RXF 393 renal, in the test on SF-539 CNS, in the test on MDA-MB-231 breast, in the test on NCI-H23 lung, in the test with HCC-2998 colon and with K-562 leukemia was greater than 100 µM in each case. For the same compound, the TGI with M14 melanoma was greater than 100 µM; with HS 578T breast it was 75.6 µM.
